Values joined by “and” are separate entries in the source; they are usually repeats but may differ in a detail not shown here. Equal entries are not always repeated. “Also recorded” adds a separate entry of the source.
Key:
Assay type in all cases: cell-based, human
[1] = system: GIO (gastrointestinal organoids from HiPSCs); experiment: 10-plex proinflammatory cytokine array of LPS-treated GIO media
Method: 10-plex proinflammatory cytokine (ProC) measurement of LPS and pathogen/non-pathogenic bacterial treated GIO media (supernatant) was assayed using the Luminex multiplexing cytokine suspension array technology (Immune Monitoring Core Facility, USC, CA). Measurements of IL-2, IL-6, IL-8, IL-10, IL-13, TNF-α, INF-γ, MIP-1α and MIP-1β in the supernatant were analyzed using a MilliPlex MAP human cytokine/chemokine magnetic bead panel (MilliporeSigma, St. Louis, MO). Plates were read on a Bio-Plex 200 System using Bio-Plex Manager software version 6.0 (BioRad, Hercules, CA). Five (5) parameter logistic regression algorithms were used to determine cytokine concentrations based on provided cytokine standards and averages from triplicate-wells. Each ProC standard was measured using six known concentrations (10.0 ng, 2.0 ng, 0.4 ng, 0.08 ng, 0.016 ng, 0.0032 ng), and most regression values reached >0.99. Limit of detection: The lower limit of quantitation (LLOQ) for each ProCs are IL-13 (0.257 pg/mL), IL-1β (0.485 pg/mL), IL-2 (0.157 pg/mL), IL-8 (0.299 pg/mL), TNF-α (0.382 pg/mL), IL-6 (0.179 pg/mL), INF-γ (0.562 pg/mL), IL-10 (1.510 pg/mL), MIP-1α (0.273 pg/mL), MIP-1β ([…]). We quantified the UT-GIO, LPS-treated Sus-GIO, and Cryo-GIO with or without pathogenic and non-pathogenic bacteria. After analyzing ProC in each treatment, we conducted statistical analyses to determine the significance of the ProC status of pathogenic versus non-pathogenic bacteria in LPS-treated (Sus-GIO) and untreated GIO (UT-GIO) using GraphPad Prism (San Diego, CA). We have performed two-way ANOVA with Tukey's multiple comparisons using GraphPad Prism. *p<0.05, **p<0.01, ***p<0.001, ****p<0.0001 denotes significance.

[2] = system: GIO (gastrointestinal organoids from HiPSCs); experiment: Immunocytochemistry of Zo1 (TJP1) and Ki67 in LPS-treated GIO
Description: Immunocytochemistry (ICC) and flow cytometry is a common cellular protein or antigen-detecting and visualization techniques that can recognize the target of interest or specific marker expression in cells via imaging and a series of flow histograms. The antibody is directly or indirectly linked to a reporter, such as a fluorophore or an enzyme. We performed ICC and flow cytometry as a previously established method developed by the PI.^35, 36 Briefly, for flow cytometry, cells were collected and dissociated with trypsin into a single cell and then blocked with 2% mouse serum and staining with conjugated anti-CDX2 antibody (BD Biosciences) as previously established method^11 and run to NovoCyte Flow Cytometer (Agilent Technologies, Santa Clara, CA). We have verified endodermal marker verification using CDX2 expression using flow cytometry. But for ICC, we have grown GIOs on coverslips coated or directly on the 24-well plates. Then cells were washed with PBS (phosphate-buffered saline) and fixed with 4% paraformaldehyde (PFA, Thermo Scientific). After additional washes in PBS, the cells were permeabilized in 0.1% Triton X-100 (Sigma-Aldrich), followed by blocking with 5% BSA (bovine serum albumin) in PBS containing 10% normal goat serum (NGS, Thermofisher Scientific). Next, the cells were incubated overnight with primary antibodies diluted in a blocking solution at […] with an appropriate dilution indicated by the manufacturer. The next day, the cells were washed three times with washing buffer (1×PBS containing 0.05% Tween 20 and 1% NGS). Then cells were incubated for 2 h at 25° C. with a fluorescent secondary antibody (Life Technologies). […] NGL lab-produced GIO followed a similar developmental pathway in the fetus or fetal mouse^37, including smooth muscle contractile ability determined by smoothA and β-actin,^14 GFAP, and MAP2.

[3] = system: GIO (gastrointestinal organoids from HiPSCs); experiment: MTT cell viability assay of Fresh-GIO and Cryo-GIO; conditions: LPS 96 h
Method: We determined GIO viability after the freeze-thaw cycle using a colorimetric assay to evaluate cell metabolic activity with an MTT [3-(4,5-dimethylthiazol-2-yl)-2,5-diphenyltetrazolium bromide] assay, following the manufacturer's instructions for the assay (MilliporeSigma). To perform the reported established MTT assay^40, we grew GIO in 24-well plates and then treated them with or without LPS for 96 h to observe viability and stability. We added lmg/mL of MTT reagent to each −well containing GIO, followed by the 2 h incubation at 37° C. Further, GIO was washed with sterile PBS, followed by the addition of dimethyl sulfoxide (DMSO) in each—well and mixed. After the 10 min incubation, DMSO was absorbed the MTT and run for a plate reader (SpectraMax iD3 Plate Reader, Molecular Devices, San Jose, CA) with the optical absorption density (OD) of 570 nm to determine the amount of MTT binding in the viable cell. This method determined our GIO's viability and stability after the freeze-thaw cycle with or without inflectional susceptible LPS treatment. We calculated the amount of MTT in each well using the following formula: […]

[4] = system: microbiota-treated GIO bacterial community; experiment: Shotgun metagenomics of fecal microbiota-treated GIO; conditions: LPS-treated GIO vs GIO without LPS, with fecal microbiota
Method: Our UT-GIO and Sus-GIO were treated with fecal microbiota to generate GIO with a complete gut-microbiome system observed in vivo.^38,39 In this context, we first prepared fecal microbiota, purchased from Discovery Life Sciences (DLS). DLS obtains fecal microbiota samples according to their protocol approved by their internal review board (IRB). Then, 100 mg of fecal microbiota was dissolved with sterile PBS and filtered by a 70 μm cell strainer to remove aggregates. Filtered fecal microbiota was further diluted 1:100 using an intestinal expansion medium without penicillin/streptomycin. […] Microbiota-treated GIO with or without LPS and pathogenic/nonpathogenic bacterial culture media sample was analyzed by University of California, San Diego (UCSD) Microbiome Core to obtain metagenomic profiles.
In total, pathogenic and non-pathogenic UT (untreated) and Sus (susceptible)-GIO samples were processed for total DNA extraction and metagenomic library preparation and sequencing. […] Sequencing data were processed first by performing adapter trimming and human-read filtering via pairwise alignments using minimap2. All reads were uploaded into qiita, and taxonomy was assigned using the Web of Life toolkit (WoLtka) implementation in Qiime2 via QIITA (read more here: https://github.com/qiyunzhu/woltka). […]

In the case of lipopolysaccharide [LPS], the “IL-10, IL-1β and IFNγ secretion” value ([1]; LPS 100 μg/mL, 48 h only) was “upregulated only in 48 h time points; also recorded: upregulated when treated with only 100 μg/mL LPS for 48 h”, the “IL-2, IL-6, IL-8, TNF-α, MIP-1α and MIP-1β secretion” value ([1]; LPS 10-100 μg/mL, 24 h and 48 h, dose and time-dependent) was “upregulated” and the IL-13 secretion ([1]; any time point or LPS concentration) was “unable to detect”. The “Effect on Zo1 immunostaining at earlier time point” value ([2]; 24-48 h) was “could not see any effect on Zo1”, the “Ki67 (intestinal crypt cell type) expression” value ([2]; LPS 100 μg/ml, 96 h) was “decreased” and the “Effect on TJP1 (Zo1) expression” value ([2]; LPS 50-100 μg/ml, 96 h) was “affects GIO TJP1; also recorded: disrupts endothelial tight junction protein”. For the same substance, the “Loss of cell viability (MTT)” value [3] was 15-20% and ~20% and the “Change of bacterial community (Bacteroidales bacterium M2)” value [4] was “causes a bloom of an unknown Bacteroides sp; also recorded: caused a bloom of unknown Bacteroides sp”.
